Measurements reported in patent US7238813B2, “Chemical compounds” (Smithkline Beecham Corporation, priority 2000, dated 2007).
pIC50: −log10 of the molar value. Counter-ions that a name gives are not always drawn.

Tests used:
[1] = target: T1, GST-TIE2 (intracellular domains of human TIE2) (Homo sapiens, UniProt Q02763); experiment: TIE-2 enzyme assay (TIE2-E), LANCE method; type: biochemical; conditions: 80 uM ATP
T1 construct: made in house
Method in brief: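 Baculovirus GST-TIE2 (human intracellular domain, aa 762–1104) preactivated 30 min at RT with 2 mM ATP, then reacted 30 min at RT with 1 μM D1-15 peptide, 80 uM ATP, 10 mM MgCl2, pH 7.4, 2.4% DMSO. EDTA-stopped; LANCE Eu-anti-pTyr/streptavidin-APC read-out. IC50 by nonlinear regression, reported as pIC50.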

GST-VEGFR2 = target: T2, GST-VEGFR2 (Homo sapiens, UniProt P35968); experiment: VEGF-R2 enzyme assay (VEGF-E), LANCE method; type: biochemical; conditions: 75 μM ATP
T2 construct: GST-VEGFR2, baculovirus expressed recombinant constructs of the intracellular domains of human TIE2 tagged by GST; made in house
T2 sequence (P35968 786-1356 limits assumed): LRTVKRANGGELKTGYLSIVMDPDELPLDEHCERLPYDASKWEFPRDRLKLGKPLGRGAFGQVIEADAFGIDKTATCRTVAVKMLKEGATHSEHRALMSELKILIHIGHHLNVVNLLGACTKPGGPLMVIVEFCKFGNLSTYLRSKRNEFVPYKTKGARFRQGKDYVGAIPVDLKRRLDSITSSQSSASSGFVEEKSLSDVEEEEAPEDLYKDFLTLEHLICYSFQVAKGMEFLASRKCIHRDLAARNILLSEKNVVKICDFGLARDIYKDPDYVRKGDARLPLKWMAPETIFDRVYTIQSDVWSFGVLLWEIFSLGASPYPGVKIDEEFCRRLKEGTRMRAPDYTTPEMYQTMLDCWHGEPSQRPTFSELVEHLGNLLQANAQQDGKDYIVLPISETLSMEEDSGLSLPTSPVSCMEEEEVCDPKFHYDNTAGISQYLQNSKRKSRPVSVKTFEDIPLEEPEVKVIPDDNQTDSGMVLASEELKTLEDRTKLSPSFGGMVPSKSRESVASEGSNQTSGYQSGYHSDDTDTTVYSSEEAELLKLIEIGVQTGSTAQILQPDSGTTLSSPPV

[2] = target: T3, TIE2 intracellular domain/c-fms extracellular domain (TIE2/c-fms) chimeric protein expressing mouse 3T3 cells (Homo sapiens, UniProt Q02763); experiment: TIE-2 autophosphorylation assay (TIE2-C), ELISA; type: cell-based; conditions: TIE2/c-fms 3T3 cells, MCSF activation
T3 construct: a TIE2 intracellular domain/c-fms extracellular domain (TIE2/c-fms) chimeric protein; expressed in transfected cells; host or cells: mouse 3T3 cells
T3 sequence (Q02763 770-1124 limits assumed, change not shown): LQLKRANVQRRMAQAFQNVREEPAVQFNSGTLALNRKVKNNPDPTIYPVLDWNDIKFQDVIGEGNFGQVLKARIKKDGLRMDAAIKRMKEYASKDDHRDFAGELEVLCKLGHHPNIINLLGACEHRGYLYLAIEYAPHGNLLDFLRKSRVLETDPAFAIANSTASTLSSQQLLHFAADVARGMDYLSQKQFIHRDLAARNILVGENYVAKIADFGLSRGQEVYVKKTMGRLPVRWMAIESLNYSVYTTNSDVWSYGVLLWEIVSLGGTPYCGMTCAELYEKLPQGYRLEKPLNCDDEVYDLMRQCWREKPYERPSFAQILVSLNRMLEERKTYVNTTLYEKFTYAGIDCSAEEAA
Protocol: TIE-2 Autophosphorylation Assay (TIE2-C)
The TIE-2 autophosphorylation assay used an ELISA method and a TIE2 intracellular domain/c-fms extracellular domain (TIE2/c-fms) chimeric protein expressing mouse 3T3 cells. This assay measured the autophosphorylation level of TIE2 protein expressed in cells. The cells were cultured in high glucose DMEM (Sigma) containing 10% serum at 37° C. in a humidified 10% CO2, 90% air incubator. The test compound (diluted from a 10 mM stock in DMSO, final DMSO concentration was 0.1%) was incubated with TIE2/c-fms expressing cells for 1 hr in serum free DMEM in 96 well plates followed by the activation of TIE2/c-fms receptor using c-fms ligand, MCSF (macrophage colony stimulating factor). The culture media was removed by aspiration and the cells incubated for at least 30 mins on ice with lysis buffer containing 137 mM NaCl, 2 mM EDTA, 10% glycerol, […] sodium ortho vanadate and complete protease inhibitor cocktail (Roche) in 20 mM Tris-HCl (pH8.0). The cell extracts were transferred into Rat anti-c-fms antibody coated 96 well plates and incubated for 12 hrs at 4° C. The extracts were removed by aspiration and the plate was incubated with biotinylated anti-phosphotyrosine antibody, PT66 (Sigma) and then with HRP (Horseradish Peroxidase)-labeled streptavidin (PIERCE). The optical density at 450 nm derived from HRP catalyzed TMB was measured with an ARVO multilabel counter. (Wallac Berthold Japan). The percent inhibition of activity was calculated relative to blank control wells. The concentration of test compound that inhibits 50% of activity (IC50) was interpolated using nonlinear regression (Levernberg-Marquardt) and the equation, y=Vmax (1−x/(K+x))+Y2, where “K” was equal to the IC50. The IC50 values were converted to pIC50 values, i.e., −log IC50 in Molar concentration.

[3] = system: Human umbilical cord endothelial cells (HUVEC); experiment: VEGF-driven cellular proliferation assay: BrdU incorporation assay (VEGF-C); type: cell-based; design: key to VEGF-C: + = pIC50 of 5.0–6.0; ++ = pIC50 of 6.0–7.0; +++ = pIC50 of > 7.0; − = a negative or inconclusive result; conditions: for pIC50: Homo sapiens
Protocol: VFGF-driven Cellular Proliferation Assay: BrdU Incorporation Assay (VEGF-C)
Human umbilical cord endothelial cells (HUVEC, Clonetics, CC2519) were passaged in Type I collagen-coated 100-mm petridishes in EGM-MV medium (Clonetics, CC3125) at 37° C. in a humidified 5% CO2, 95% air incubator. (HUVEC passaged more than 6 times in vitro were discarded and not subjected to assaying.) The cells were harvested using trypsin/EDTA, counted using a haemocytometer and plated at 5000 cells/well in a Type I-collagen coated 96-well plate (Becton Dickinson, 354407) in M199 medium (Gibco BRL, 12340-030) containing 5% FBS (Hyclone, A 1115-L) and gentamicin (at 50 μg/ml, Gibco BRL). After incubation overnight at 37° C., the media were replaced with 100 μl of M199 serum-free medium containing compounds at various concentrations with 0.6% DMSO and gentamicin. The compounds were diluted in serum-free M199 medium from 10 mM stock solutions prepared in 100% DMSO. After a 30 min incubation at 37° C., the cells were fed with 100 μl of serum-free M199 medium containing gentamicin, 0.2% culture-grade bovine serum albumin (BSA, Sigma A1993) and 20 ng/ml of VEGF (R&D systems, 293-VE) or 0.6 ng/ml of basic FGF (R&D systems, 233-FB), and cultured at 37° C. for another 24 h. The cells were pulsed with bromodeoxyuridine (BrdU at 10 μM in serum-free M199) at 37° C. for an additional 24 h. The incorporation of BrdU into the proliferating HUVEC were analyzed using BrdU Cell Proliferation ELISA (Roche Molecular Biochemicals, 1647229) according to the manufacturer's protocols. The optical density at 450 nm was measured with a multilabel counter (ARVO SX, Wallac). The percent inhibition of cell growth was calculated relative to blank control wells. The concentration of test compound that inhibits 50% of cell growth (IC50) was interpolated using nonlinear regression (Levernberg-Marquardt) and the equation, y=Vmax (1−x/(K+x))+Y2, where “K” was equal to the IC50. The IC50, values were converted to pIC50 values, i.e., −log IC50 in Molar concentration.

T1 sequence (Q02763 762-1104): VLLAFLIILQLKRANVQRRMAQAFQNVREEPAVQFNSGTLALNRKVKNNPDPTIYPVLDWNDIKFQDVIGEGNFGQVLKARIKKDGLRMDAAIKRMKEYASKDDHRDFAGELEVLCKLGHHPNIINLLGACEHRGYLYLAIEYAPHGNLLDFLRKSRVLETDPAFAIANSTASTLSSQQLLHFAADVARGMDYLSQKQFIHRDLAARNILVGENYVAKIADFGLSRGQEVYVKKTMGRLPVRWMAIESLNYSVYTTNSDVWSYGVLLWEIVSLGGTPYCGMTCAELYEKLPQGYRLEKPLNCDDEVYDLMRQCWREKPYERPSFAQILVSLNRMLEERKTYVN

Row | Compound | pIC50 [1] | pIC50 (GST-VEGFR2) | pIC50 [2] | VEGF-C [3] | pIC50 [3]
1 | COC(=O)Nc1nc2cc(Sc3ccc(NC(=O)Nc4cc(C(F)(F)F)ccc4Cl)cc3)ccc2[nH]1.Cl [Example 51, Methyl N-(5-(4-((2-chloro-5-(trifluoromethyl)phenyl)aminocarbonylamino)phenylthio)-1H-benzimidazol-2-yl)carbamate hydrochloride] | > 7.00 | > 7.00 | > 7.00 | − | 
2 | CN1CCN(CC(=O)Nc2nc3ccc(Oc4ccc(NC(=O)Nc5cc(C(F)(F)F)ccc5F)cc4)cc3[nH]2)CC1 [Example 101, N-(5-(4-((2-Fluoro-5-(trifluoromethyl)phenyl)aminocarbonylamino)phenoxy)-1H-benzimidazol-2-yl)(4-methyl-1-piperazino)acetamide] | > 7.00 |  | > 7.00 |  | > 7.00
3 | COC(=O)Nc1nc2cc(Oc3ccc(NC(=O)Nc4cc(F)ccc4F)cc3)ccc2[nH]1 [Example 56, Methyl N-(5-(4-((2,5-difluorophenyl)aminocarbonylamino)phenoxy)-1H-benzimidazol-2-yl)carbamate] | 6.00 to 7.00 | > 7.00 | > 7.00 | − | 
4 | COCCOCCOCC(=O)Nc1nc2ccc(Oc3ccc(NC(=O)Nc4cc(C(F)(F)F)ccc4F)cc3)cc2[nH]1 [Example 33, N-(5-(4-((2-Fluoro-5-(trifluoromethyl)phenyl)aminocarbonylamino)phenoxy)-1H-benzimidazol-2-yl)(2-(2-(methoxy)ethoxy)ethoxy)acetamide] | > 7.00 | > 7.00 | > 7.00 |  | > 7.00
5 | O=C(CCc1cccnc1)Nc1nc2cc(Oc3ccc(NC(=O)Nc4cc(C(F)(F)F)ccc4F)cc3)ccc2[nH]1 [Example 88, N-(5-(4-((2-Fluoro-5-(trifluoromethyl)phenyl)aminocarbonylamino)phenoxy)-1H-benzimidazol-2-yl)-3-(pyridine-3-yl)propionamide] | > 7.00 | > 7.00 | > 7.00 |  | > 7.00
6 | COC(=O)Nc1cn2cc(Oc3ccc(NC(=O)Nc4cc(C(F)(F)F)ccc4F)cc3)ccc2n1 [Example 68, Methyl N-(5-(4-((2-fluoro-5-(trifluoromethyl)phenyl)aminocarbonylamino)phenoxy)-3a-aza-2-indolyl)carbamate] | > 7.00 | > 7.00 | > 7.00 |  | > 7.00
7 | COC(=O)Nc1nc2cc(Oc3ccc(NC(=O)Nc4cccc(C#N)c4)cc3)ccc2[nH]1 [Example 49] | 6.00 to 7.00 | > 7.00 | 6.00 to 7.00 | − | 
8 | COC(=O)Nc1nc2cc(Oc3ccc(NC(=O)Nc4cc(F)cc(C(F)(F)F)c4)cc3)ccc2[nH]1 [Example 50, Methyl N-(5-(4-((3-fluoro-5-(trifluoromethyl)phenyl)aminocarbonylamino)phenoxy)-1H-benzimidazol-2-yl)carbamate] | > 7.00 | > 7.00 | > 7.00 |  | 6.00 to 7.00
9 | CCc1cccc(NC(=O)Nc2ccc(Oc3ccc4[nH]c(NC(=O)OC)nc4c3)cc2)c1 [Example 11, Methyl N-(5-(4-((3-ethylphenyl)aminocarbonylamino)phenoxy)-1H-benzimidazol-2-yl)carbamate] | > 7.00 |  | 6.00 to 7.00 | − | 
10 | COC(=O)Nc1nc2ncc(Oc3ccc(NC(=O)Nc4cc(C(F)(F)F)ccc4F)cc3)cc2[nH]1.Cl [Example 75, Methyl N-(6-(4-((2-fluoro-5-(trifluoromethyl)phenyl)aminocarbonylamino)phenoxy)-3,4-diaza-1H-indole-2-yl)carbamate dihydrochloride] | 6.00 to 7.00 |  | > 7.00 | − | 
11 | COC(=O)Nc1nc2cc(Oc3ccc(NC(=O)Nc4cccc(Br)c4)cc3)ccc2[nH]1 [Example 40, Methyl N-(5-(4-((3-bromophenyl)aminocarbonylamino)phenoxy)-1H-benzimidazol-2-yl)carbamate] | > 7.00 |  | > 7.00 | − | 
12 | O=C(O)CCC(=O)Nc1nc2cc(Oc3ccc(NC(=O)Nc4cc(C(F)(F)F)ccc4F)cc3)ccc2[nH]1 [Example 32, 3-(N-(5-(4-((2-Fluoro-5-(trifluoromethyl)phenyl)aminocarbonylamino)phenoxy)-1H-benzimidazol-2-yl)carbamoyl)propionic acid] | > 7.00 |  | 6.00 to 7.00 |  | 5.00 to 6.00
13 | CC(=O)Nc1nc2cc(Oc3ccc(NC(=O)Nc4cc(C(F)(F)F)ccc4F)nc3)ccc2[nH]1 [Example 36, N-(5-(2-((2-fluoro-5-(trifluoromethyl)phenyl)aminocarbonylamino)-5-pyridyloxy)-1H-benzimidazol-2-yl)acetamide dihydrochloride] | > 7.00 |  | > 7.00 | − | 
14 | COC(=O)Nc1nc2cc(Oc3ccc(NC(=O)Nc4cccc(SC(F)(F)F)c4)cc3)ccc2[nH]1 [Example 41, Methyl N-(5-(4-((3-(trifluoromethylthio)phenyl)aminocarbonylamino)phenoxy)-1H-benzimidazol-2-yl)carbamate] | > 7.00 |  | > 7.00 | − | 
15 | COC(=O)Nc1nc2cc(Oc3ccc(NC(=O)Nc4cccc(C(C)(C)C)c4)cc3)ccc2[nH]1 [Example 21, Methyl N-(5-(4-((3-t-butylphenyl)aminocarbonylamino)phenoxy)-1H-benzimidazol-2-yl)carbamate] | > 7.00 |  | > 7.00 | − | 
16 | COC(=O)Nc1nc2cc(Oc3cccc(NC(=O)Nc4cccc(C(F)(F)F)c4)c3)ccc2[nH]1 [Example 20, Methyl N-(5-(3-((3-(trifluoromethyl)phenyl)aminocarbonylamino)phenoxy)-1H-benzimidazol-2-yl)carbamate] | > 7.00 |  | 6.00 to 7.00 |  | > 7.00
17 | COCCOCC(=O)Nc1nc2ccc(Oc3ccc(NC(=O)Nc4cc(C(F)(F)F)ccc4F)cc3)cc2[nH]1 [Example 34] | > 7.00 |  | > 7.00 | − | 
18 | CS(=O)(=O)n1c(N)nc2ccc(Oc3ccc(NC(=O)Nc4cc(C(F)(F)F)ccc4F)cc3)cc21 [Example 23] | > 7.00 |  | > 7.00 |  | 6.00 to 7.00
19 | COC(=O)Nc1nc2ccc(Oc3ccc(NC(=O)Nc4cc(C(F)(F)F)ccc4Cl)cc3)cc2s1 [Example 76, Methyl N-(6-(4-((2-chloro-5-(trifluoromethyl)phenyl)aminocarbonylamino)phenoxy)benzthiazol-2-yl)carbamate] | > 7.00 |  | > 7.00 | − | 
